Data: PubChem BioAssay AID248 (DTP/NCI, 2004)
Where “and” joins values, the source holds several entries; their conditions need not be identical. Equal values may be shown once. Toxic doses and inconclusive results are not listed. Cut-off read from the data, not from the text of the source: active = T/C of 150% or more; inactive = T/C below 125%.

System: L1210 leukemia ip in BDF1 mice, survival T/C
Test: NCI In Vivo Anticancer Drug Screen. Data for tumor model L1210 Leukemia (intraperitoneal) in B6D2F1 (BDF1) mice
Details: endpoint: mean survival time, higher = longer survival
Method: The antitumor activity of compounds was measured in mice bearing transplantable tumors. Survival or tumor size were measured and the results are expressed as the measurement made in the treated group (T) divided by the measurement made in the vehicle treated control group (C). The tumor model used in this assay is L1210 Leukemia (intraperitoneal) in B6D2F1 (BDF1) mice

[1] = dose: 100.0 mg/kg/injection, schedule: Q01DX009 (ip), vehicle: Klucel (hydroxypropylcellulose) (HPC)
[2] = dose: 200.0 mg/kg/injection, schedule: Q01DX009 (ip), vehicle: Klucel (hydroxypropylcellulose) (HPC)
[3] = dose: 400.0 mg/kg/injection, schedule: Q01DX009 (ip), vehicle: Klucel (hydroxypropylcellulose) (HPC)
[4] = dose: 25.0 mg/kg/injection, schedule: Q01DX009 (ip), vehicle: saline
[5] = dose: 100.0 mg/kg/injection, schedule: Q01DX001 (ip), vehicle: carboxymethylcellulose (CMC)
[6] = dose: 200.0 mg/kg/injection, schedule: Q01DX001 (ip), vehicle: carboxymethylcellulose (CMC)

Measured: T/C

Nc1c(Cl)c(Cl)cc(Cl)c1Cl
inactive: dose: 100.0 mg/kg/injection, schedule: Q01DX009 (ip), vehicle: saline with Tween-80 102 % of control | dose: 200.0 mg/kg/injection, schedule: Q01DX009 (ip), vehicle: saline with Tween-80 100 % of control | dose: 400.0 mg/kg/injection, schedule: Q01DX009 (ip), vehicle: saline with Tween-80 95 % of control

CC(C)(CC(=O)O)CC(=O)OCC(=O)[C@@]1(O)CC[C@H]2[C@@H]3CCC4=CC(=O)C=C[C@]4(C)[C@H]3[C@@H](O)C[C@@]21C
inactive: dose: 20.0 mg/kg/injection, schedule: Q01DX009 (ip), vehicle: steriod suspending solution 103 % of control | dose: 40.0 mg/kg/injection, schedule: Q01DX009 (ip), vehicle: steriod suspending solution 103 % of control | dose: 50.0 mg/kg/injection, schedule: Q01DX001 (sc), vehicle: steriod suspending solution 102 % of control | dose: 80.0 mg/kg/injection, schedule: Q01DX009 (ip), vehicle: steriod suspending solution 111 % of control | dose: 100.0 mg/kg/injection, schedule: Q01DX001 (sc), vehicle: steriod suspending solution 100 % of control | dose: 100.0 mg/kg/injection, schedule: Q01DX009 (sc), vehicle: steriod suspending solution 93 % of control | dose: 100.0 mg/kg/injection, schedule: Q04DX003 (sc), vehicle: steriod suspending solution 98 % of control | dose: 200.0 mg/kg/injection, schedule: Q01DX001 (sc), vehicle: steriod suspending solution 113 % of control | dose: 200.0 mg/kg/injection, schedule: Q01DX009 (sc), vehicle: steriod suspending solution 104 % of control and 118 % of control | dose: 200.0 mg/kg/injection, schedule: Q04DX003 (sc), vehicle: steriod suspending solution 110 % of control | dose: 400.0 mg/kg/injection, schedule: Q01DX001 (sc), vehicle: steriod suspending solution 107 % of control | dose: 400.0 mg/kg/injection, schedule: Q01DX009 (sc), vehicle: steriod suspending solution 102 % of control and 124 % of control | dose: 400.0 mg/kg/injection, schedule: Q04DX003 (sc), vehicle: steriod suspending solution 104 % of control

O=C(Nc1cccc(F)c1)Nc1cccc([N+](=O)[O-])c1
inactive: [1] 102 % of control | [2] 102 % of control | [3] 97 % of control

COc1ccccc1C(=O)NN
inactive: dose: 6.25 mg/kg/injection, schedule: Q04DX003 (ip), vehicle: saline 98 % of control | dose: 12.5 mg/kg/injection, schedule: Q04DX003 (ip), vehicle: saline 98 % of control | [4] 106 % of control | dose: 25.0 mg/kg/injection, schedule: Q04DX003 (ip), vehicle: saline 103 % of control | dose: 50.0 mg/kg/injection, schedule: Q01DX009 (ip), vehicle: saline 110 % of control

O=Cc1ccc[nH]1
inactive: dose: 100.0 mg/kg/injection, schedule: Q04DX003 (ip), vehicle: other 93 % of control | dose: 200.0 mg/kg/injection, schedule: Q04DX003 (ip), vehicle: other 96 % of control | dose: 400.0 mg/kg/injection, schedule: Q04DX003 (ip), vehicle: other 110 % of control

O=C(Nc1ccccc1)Oc1ccc(OCc2ccccc2)cc1
inactive: dose: 12.5 mg/kg/injection, schedule: Q04DX003 (ip), vehicle: saline with Tween-80 95 % of control | dose: 25.0 mg/kg/injection, schedule: Q04DX003 (ip), vehicle: saline with Tween-80 93 % of control | dose: 50.0 mg/kg/injection, schedule: Q04DX003 (ip), vehicle: saline with Tween-80 93 % of control

COc1cc(/C=N/N=C(N)N)cc(I)c1O
inactive: dose: 15.0 mg/kg/injection, schedule: Q01DX Z (ip), vehicle: carboxymethylcellulose (CMC) 100 % of control | dose: 30.0 mg/kg/injection, schedule: Q01DX Z (ip), vehicle: carboxymethylcellulose (CMC) 106 % of control | dose: 30.0 mg/kg/injection, schedule: Q01DX Z (oral), vehicle: carboxymethylcellulose (CMC) 102 % of control | dose: 60.0 mg/kg/injection, schedule: Q01DX Z (ip), vehicle: carboxymethylcellulose (CMC) 112 % of control | dose: 60.0 mg/kg/injection, schedule: Q01DX Z (oral), vehicle: carboxymethylcellulose (CMC) 95 % of control | dose: 120.0 mg/kg/injection, schedule: Q01DX Z (oral), vehicle: carboxymethylcellulose (CMC) 98 % of control

CC(O)c1cccc(NC(=O)NC2CCCCC2)c1 (centres undefined)
inactive: [1] 95 % of control | [2] 101 % of control | [3] 95 % of control

CC1(C)N=C(N)N=C(N)N1c1ccc(CC(CCc2ccccc2)C(=O)Nc2ccc(S(=O)(=O)F)cc2)cc1 (centres undefined)
inactive: dose: 100.0 mg/kg/injection, schedule: Q01DX001 (ip), vehicle: Klucel (hydroxypropylcellulose) (HPC) 90 % of control | dose: 200.0 mg/kg/injection, schedule: Q01DX001 (ip), vehicle: Klucel (hydroxypropylcellulose) (HPC) 97 % of control | dose: 400.0 mg/kg/injection, schedule: Q01DX001 (ip), vehicle: Klucel (hydroxypropylcellulose) (HPC) 90 % of control

FC(F)(F)c1cccc(NC(=S)NC(Cc2ccccc2)c2ccccc2)c1 (centres undefined)
inactive: dose: 100.0 mg/kg/injection, schedule: Q04DX002 (ip), vehicle: gum acacia 104 % of control | dose: 200.0 mg/kg/injection, schedule: Q04DX002 (ip), vehicle: gum acacia 98 % of control | dose: 400.0 mg/kg/injection, schedule: Q04DX002 (ip), vehicle: gum acacia 92 % of control

c1ccc(C(N2CCN(c3ccccc3)CC2)N2CCN(c3ccccc3)CC2)cc1
inactive: dose: 100.0 mg/kg/injection, schedule: Q04DX002 (ip), vehicle: Klucel (hydroxypropylcellulose) (HPC) 94 % of control | dose: 200.0 mg/kg/injection, schedule: Q04DX002 (ip), vehicle: Klucel (hydroxypropylcellulose) (HPC) 94 % of control | dose: 400.0 mg/kg/injection, schedule: Q04DX002 (ip), vehicle: Klucel (hydroxypropylcellulose) (HPC) 94 % of control

CC1C2CC3OC(=O)C1C3C2 (centres undefined)
inactive: dose: 50.0 mg/kg/injection, schedule: Q01DX001 (ip), vehicle: carboxymethylcellulose (CMC) 104 % of control | [5] 102 % of control | [6] 87 % of control

CCN(CCCl)Cc1ccc(-c2c3ccccc3cc3c2ccc2ccccc23)cc1
inactive: dose: 78.0 mg/kg/injection, schedule: Q01DX001 (ip), vehicle: carboxymethylcellulose (CMC) 90 % of control | dose: 118.0 mg/kg/injection, schedule: Q01DX001 (ip), vehicle: carboxymethylcellulose (CMC) 92 % of control | dose: 177.0 mg/kg/injection, schedule: Q01DX001 (ip), vehicle: carboxymethylcellulose (CMC) 95 % of control

CCCCN1C(=O)C2CCC34C5C(=O)N(CCCC)C(=O)C5C5C=CC3(C2C1=O)C1C(=O)N(CCCC)C(=O)C1N54 (centres undefined)
inactive: dose: 50.0 mg/kg/injection, schedule: Q01DX009 (ip), vehicle: Klucel (hydroxypropylcellulose) (HPC) 99 % of control | [1] 99 % of control | [2] 97 % of control | [3] 97 % of control

CCS(=O)(=O)c1ccc(NC(=O)OC(C)(C)C)cc1
inactive: [5] 94 % of control | [6] 94 % of control | dose: 400.0 mg/kg/injection, schedule: Q01DX001 (ip), vehicle: carboxymethylcellulose (CMC) 100 % of control

Nc1nc(N)c2nc(CBr)cnc2n1
inactive: dose: 6.25 mg/kg/injection, schedule: Q01DX009 (ip), vehicle: saline 105 % of control | dose: 12.5 mg/kg/injection, schedule: Q01DX009 (ip), vehicle: saline 88 % of control | [4] 115 % of control

O=C1Cc2c(Cl)cccc2C(=S)N1
inactive: dose: 100.0 mg/kg/injection, schedule: Q01DX009 (ip), vehicle: saline sonified 95 % of control | dose: 100.0 mg/kg/injection, schedule: Q04DX003 (ip), vehicle: saline with Tween-80 95 % of control | dose: 200.0 mg/kg/injection, schedule: Q01DX009 (ip), vehicle: saline sonified 91 % of control | dose: 200.0 mg/kg/injection, schedule: Q04DX003 (ip), vehicle: saline with Tween-80 93 % of control | dose: 400.0 mg/kg/injection, schedule: Q01DX009 (ip), vehicle: saline sonified 98 % of control | dose: 400.0 mg/kg/injection, schedule: Q04DX003 (ip), vehicle: saline with Tween-80 92 % of control

C[N+](C)(C)C(=O)c1ccccc1
inactive: dose: 50.0 mg/kg/injection, schedule: Q01DX001 (ip), vehicle: saline 104 % of control | dose: 100.0 mg/kg/injection, schedule: Q01DX001 (ip), vehicle: saline 101 % of control

CCCN=C(N)N=C(N)N
inactive: dose: 50.0 mg/kg/injection, schedule: Q01DX009 (ip), vehicle: water 108 % of control | dose: 100.0 mg/kg/injection, schedule: Q01DX001 (ip), vehicle: water 102 % of control | dose: 100.0 mg/kg/injection, schedule: Q01DX009 (ip), vehicle: water 95 % of control | dose: 100.0 mg/kg/injection, schedule: Q04DX003 (ip), vehicle: water 104 % of control | dose: 200.0 mg/kg/injection, schedule: Q01DX001 (ip), vehicle: water 102 % of control | dose: 200.0 mg/kg/injection, schedule: Q04DX003 (ip), vehicle: water 102 % of control | dose: 400.0 mg/kg/injection, schedule: Q01DX001 (ip), vehicle: water 102 % of control
